According to ChEMBL document CHEMBL1201862, “PubChem BioAssay data set” (2004):
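Growth conditions: 96-well plates. Treatment: test compound, 48 hours, 5 concentrations. Analysis: linear interpolation between bracketing concentrations; unreached endpoints set to highest concentration. At the GI50, growth is halved.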 Activity calls are given as the source filed them. Rule as the data show it: active = GI50 up to about 1.1 µM and inactive = higher.

Columns and labels:
Test in all cases: inhibition of tumour cell growth, NCI panel, 48 h
HT-29 = test system: HT-29
SK-MEL-28 = test system: SK-MEL-28
RPMI-8226 = test system: RPMI-8226
NCI-H522 = test system: NCI-H522
SK-OV-3 = test system: SK-OV-3
KM12 = test system: KM12
HCT-15 = test system: HCT-15
OVCAR-3 = test system: OVCAR-3
K562 = test system: K562
UACC-257 = test system: UACC-257
SF-268 = test system: SF-268
RXF 393 = test system: RXF 393
NCI-H460 = test system: NCI-H460
NCI-H23 = test system: NCI-H23
MCF7 = test system: MCF7
SNB-19 = test system: SNB-19
SNB-75 = test system: SNB-75
CCRF-CEM = test system: CCRF-CEM
MDA-N = test system: MDA-N
BT-549 = test system: BT-549

Row | SMILES | GI50 (HT-29) | GI50 (SK-MEL-28) | GI50 (RPMI-8226) | GI50 (NCI-H522) | GI50 (SK-OV-3) | GI50 (KM12) | GI50 (HCT-15) [µM] | GI50 (OVCAR-3) | GI50 (K562) | GI50 (UACC-257) | GI50 (SF-268) | GI50 (RXF 393) | GI50 (NCI-H460) | GI50 (NCI-H23) | GI50 (MCF7) | GI50 (SNB-19) | GI50 (SNB-75) | GI50 (CCRF-CEM) | GI50 (MDA-N) | GI50 (BT-549)
1 | COc1cc(C2=N/C(=C/c3cccs3)C(=O)O2)cc(OC)c1OC | > 100 µM (inactive) | > 100 µM (inactive) | > 100 µM (inactive) | > 100 µM (inactive) | > 100 µM (inactive) | > 100 µM (inactive) | > 100 | > 100 µM (inactive) | > 100 µM (inactive) | > 100 µM (inactive) | > 100 µM (inactive) | > 100 µM (inactive) | > 100 µM (inactive) | > 100 µM (inactive) | > 100 µM (inactive) | > 100 µM (inactive) | > 100 µM (inactive) | > 100 µM (inactive) | > 100 µM (inactive) | > 100 µM (inactive)
2 | O=C1C(SCCO)=C(SCCO)C(=O)c2ccccc21 | 2.16 µM (inactive) | 1.67 µM (inactive) | 0.865 µM (active) | 1.86 µM (inactive) | 1.66 µM (inactive) | 1.75 µM (inactive) | 1.39 | 0.986 µM (active) | 1.67 µM (inactive) | 1.29 µM (inactive) | 1.56 µM (inactive) | 1.33 µM (inactive) | 1.77 µM (inactive) | 0.518 µM (active) | 0.791 µM (active) | 1.78 µM (inactive) | 1.29 µM (inactive) | 0.916 µM (active) | 0.167 µM (active) | 1.43 µM (inactive)
3 | COc1cccc2c3ccccc3c3nc[nH]c3c12 | 31.6 µM (inactive) | 19.7 µM (inactive) | 21.9 µM (inactive) | 24.5 µM (inactive) | > 62.1 µM (inactive) | 18.7 µM (inactive) | 27.7 | > 100 µM (inactive) | 12.4 µM (inactive) | 23.6 µM (inactive) | 62.1 µM (inactive) | 17.5 µM (inactive) | 23.7 µM (inactive) | > 100 µM (inactive) | 47.4 µM (inactive) | > 46.8 µM (inactive) | > 47.8 µM (inactive) | 12.4 µM (inactive) | 32.1 µM (inactive) | > 71.1 µM (inactive)
4 | O=C(CNc1ccc(Cl)cc1Cl)Nn1c(-c2ccccc2)nc2ccccc2c1=O | 16.1 µM (inactive) | 21.1 µM (inactive) | 21.3 µM (inactive) | 12 µM (inactive) | 28.2 µM (inactive) | > 10 µM (inactive) | 19.1 | 17 µM (inactive) | 10.2 µM (inactive) | 21.6 µM (inactive) | 3.86 µM (inactive) | 18.9 µM (inactive) | 15.7 µM (inactive) | 12.6 µM (inactive) | 13.4 µM (inactive) | 18.5 µM (inactive) | 15.3 µM (inactive) | 2.9 µM (inactive) | 15.9 µM (inactive) | 16.3 µM (inactive)
5 | Cc1oc(N)c(S(=O)(=O)/C(C#N)=C/c2ccccc2[N+](=O)[O-])c1C | 19.2 µM (inactive) | 24.2 µM (inactive) | 27.9 µM (inactive) | 19.1 µM (inactive) | > 100 µM (inactive) | 25.2 µM (inactive) | 26.5 | 21.4 µM (inactive) | 18.6 µM (inactive) | 32.2 µM (inactive) | 31 µM (inactive) | 21.9 µM (inactive) | 31.1 µM (inactive) | 23.6 µM (inactive) | 31.1 µM (inactive) | 33.5 µM (inactive) | 33.2 µM (inactive) | 24.1 µM (inactive) | 20.7 µM (inactive) | 17.5 µM (inactive)
6 | COc1ccccc1NC(=O)CC(=O)NN | > 100 µM (inactive) | > 100 µM (inactive) | > 100 µM (inactive) | > 100 µM (inactive) | > 100 µM (inactive) | > 100 µM (inactive) | > 100 | > 100 µM (inactive) | > 100 µM (inactive) | > 100 µM (inactive) | > 100 µM (inactive) | > 100 µM (inactive) | > 100 µM (inactive) | > 100 µM (inactive) | > 100 µM (inactive) | > 100 µM (inactive) | > 100 µM (inactive) | > 100 µM (inactive) | > 100 µM (inactive) | > 100 µM (inactive)
7 | CCN1CCN(c2nc3ccccc3c3c2CCOc2ccccc2-3)CC1 | > 31 µM (inactive) | 16.6 µM (inactive) | 19.8 µM (inactive) | 26.4 µM (inactive) | > 47.8 µM (inactive) | 24.9 µM (inactive) | 16.6 | > 69 µM (inactive) | 18.1 µM (inactive) | 18.1 µM (inactive) | 39.1 µM (inactive) | 25.2 µM (inactive) | 27.2 µM (inactive) | > 62.5 µM (inactive) | > 39.8 µM (inactive) | 39.1 µM (inactive) | > 40.6 µM (inactive) | 21.3 µM (inactive) | 25.7 µM (inactive) | > 100 µM (inactive)
